Common to all, as to experiment: growth of human tumour cells (NCI), 48 h
The test system of assay [1] is MCF7 breast.
Assay [2] concerns IGROV1 ovarian.
Assay [3] relates to 786-0 renal.
For assay [4], the system named is NCI-H460 lung.
The subject of assay [5] is LOX IMVI melanoma.
For assay [6], the system named is SF-268 CNS.
The test system of assay [7] is M14 melanoma.
Assay [8] concerns SN12C renal.
The subject of assay [9] is K-562 leukemia.
For assay [10], the system named is SF-295 CNS.

Where “and” joins values, the source holds several entries; their conditions need not be identical. Equal values may be shown once.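 Exposure lasted 48 hours, with cells grown in 96-well plates and compounds tested at five concentrations. GI50 marks 50% less growth. The concentration for full growth arrest is given as TGI.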 Where only a bound is given, the exact number is not on record here.

Turning to `Oc1ccc(N=Nc2ccc(Br)cc2)c(O)c1`, the GI50 was 2.2 µM in [1]; 2.81 µM in assay [2]; 3.17 µM in [3]; 3.29 µM in assay [4]; 8.05 µM in assay [5]; 5.84 µM in assay [6]. Besides, the GI50 was 2.2 µM in [7], 6.54 µM in assay [8], 1.31 µM in assay [9] and 2.64 µM in [10]. Besides, the TGI was 54.3 µM in [1]; 16.7 µM in assay [2]; 23.6 µM in [3]; 21.5 µM in [4]; 61.1 µM in [5]; above 100 µM in assay [6]. The TGI was 5.62 µM in [7], 50 µM in assay [8], 3.75 µM in assay [9] and 11.5 µM in [10].
On to `CCN1/C(=C/C(C)=C/c2sc3ccc4ccccc4c3[n+]2CC)Sc2ccc3ccccc3c21`, for which the GI50 is 0.149 µM in [1]; 0.146 µM in [2]; 0.268 µM in assay [3]; 0.121 µM in assay [4]; 0.183 µM in assay [5]; 0.198 µM in assay [6]. Further, the GI50 in assay [7] was 0.196 µM; in assay [8], 0.189 µM; in [9], 1.03 µM; in assay [10] it was 0.121 µM. The TGI in [1] turned out to be 0.42 µM; in assay [2], 0.404 µM; in assay [3] it was 1.09 µM; in [4], 0.329 µM; in assay [5], 0.465 µM; in [6] it was 0.678 µM. Also, the TGI in assay [7] was determined as 0.58 µM; in [8], 1.05 µM; in assay [9], 18.4 µM; in assay [10], 0.674 µM.
Consider `CCNCC(=O)Nc1ccc2c(c1)C(=O)c1ccc(NC(=O)CNCC)cc1C2=O`, for which the TGI in assay [1] was determined as 5.6 µM; in assay [2], 19.5 µM; in [3], 7.92 µM; in [5], 6.58 µM; in [6] it was 16.6 µM; in [7], 12.5 µM. For the same compound, the TGI in assay [8] was 6.45 µM; in assay [9], 4.91 µM; in [10], 14.2 µM.
Regarding `Cn1cnc([N+](=O)[O-])c1S(=O)(=O)Oc1ccc(Cl)cc1`, the GI50 in assay [1] was 22.9 µM; in assay [2] it was 2.14 µM; in [3] it was 17 µM; in assay [4] it was 32.3 µM; in assay [5] it was 1.73 µM; in assay [6], 15.7 µM. Also, the GI50 is 2.36 µM in assay [7], 13.2 µM in assay [8], 2.99 µM in assay [9] and 25.2 µM in assay [10]. Besides, the TGI in assay [1] was 96.1 µM; in assay [2], 5.58 µM; in [3] it was 33 µM; in assay [4] it was above 100 µM; in assay [5], 3.57 µM; in assay [6], 38.1 µM. Also, the TGI in assay [7] is 5.21 µM; in assay [8], 30.8 µM; in assay [9], 10.2 µM; in [10] it was above 100 µM.
In the case of `Clc1cc(Br)ccc1-c1ccc(CNCC2CCNCC2)o1`, the GI50 in [1] was 1.74 µM; in assay [2], 1.9 µM; in assay [3], 1.55 µM; in [4], 1.87 µM; in [5] it was 1.86 µM; in assay [6], 1.57 µM. The GI50 in assay [7] is 1.85 µM; in assay [8], 2.23 µM; in assay [9] it was 1.45 µM; in assay [10], 1.94 µM. Further, the TGI in assay [1] stood at 3.35 µM; in [2], 3.86 µM; in [3], 3.06 µM; in [4] it was 3.72 µM; in assay [5], 3.7 µM; in assay [6], 3.04 µM. Further, the TGI in [7] came out at 3.7 µM; in [8] it was 7.69 µM; in [9], 3.46 µM; in assay [10], 3.99 µM.
With `Oc1nc(N2CCOCC2)sc1/C=C1\C=Nc2ccccc21`, the GI50 in [1], in assay [2], in [3], in assay [4], in [5] and in assay [6] was above 100 µM throughout. For the same compound, the GI50 in [7], in [8], in [9] and in assay [10] was above 100 µM throughout. For the same compound, the TGI in [1], in assay [2], in assay [3], in assay [4], in [5] and in assay [6] was above 100 µM in each case. For the same compound, the TGI in assay [7], in [8], in assay [9] and in [10] was above 100 µM in each case.
On to `CC(=O)OCC1OC(SC2=N/C(=C\c3ccc(Br)s3)C(=O)N2c2ccccc2)C(OC(C)=O)C(OC(C)=O)C1OC(C)=O` (centres undefined), for which the TGI in [1] is above 100 µM; in assay [2], above 100 µM; in assay [3], 55.4 µM and > 100 µM; in [4], above 100 µM; in assay [5], above 100 µM; in [6], above 100 µM. For the same compound, the TGI in [8], in assay [9] and in assay [10] was above 100 µM in each case. For the same compound, the GI50 was 87.4 µM and 41.7 µM in assay [2]; 17.8 µM and > 100 µM in assay [3]; > 100 µM and 18.9 µM in assay [9].
Regarding `CCCN(CCC)c1ccc(/C=N/NC(=O)c2cccnc2)c(C)c1`, the GI50 is 17.7 µM in assay [1]; 16 µM in assay [2]; 18.6 µM in [3]; 14.2 µM in assay [4]; 13.5 µM in assay [5]; 13.9 µM in [6]. The GI50 in assay [8] was 17.5 µM; in assay [9] it was 10.5 µM; in assay [10] it was 10.7 µM. Further, the TGI in [1] was found to be 36.8 µM; in assay [2] it was 39.7 µM; in assay [3] it was 42.2 µM; in [4] it was 28.3 µM; in assay [5], 27.6 µM; in assay [6], 31.2 µM. In addition, the results for the TGI in [8], in assay [9] and in assay [10] were 41.2 µM, 54.6 µM and 25.5 µM, respectively.

(Values after PubChem BioAssay (NCI).)
